Results taken from ChEMBL document CHEMBL3608307, “(±)-Acortatarinowins A-F, Norlignan, Neolignan, and Lignan Enantiomers from Acorus tatarinowii” (J Nat Prod, 2015).

Test system: RAW264.7
Assay: Inhibition of LPS-induced nitric oxide production in mouse RAW264.7 cells after 24 hrs by Griess assay
Type: functional, cell-based
Settings: RAW264.7, 24 h

Structure (SMILES) | IC50
COc1cc(OC)c([C@H]2[C@@H](C)[C@@H](c3cc(OC)c(OC)cc3OC)O[C@@H]2C)cc1OC | > 50 µM
COC(=O)c1ccc(O[C@@H](C)[C@@H](O)c2cc(OC)c(OC)c(OC)c2)c(OC)c1 | 29.5 µM
COc1cc(OC)c([C@@H]2[C@H](C)[C@H](c3cc(OC)c(OC)cc3OC)O[C@H]2C)cc1OC | > 50 µM
COc1cc(OC)cc([C@H]2OC[C@H]3[C@@H]2CO[C@@H]3c2cc(OC)c(OC)c(OC)c2)c1 | > 50 µM
COc1cc(OC)cc([C@@H]2OC[C@@H]3[C@H]2CO[C@H]3c2cc(OC)c(OC)c(OC)c2)c1 | 26.6 µM
COC(=O)c1ccc(O[C@@H](C)[C@@H](O)c2ccc(OC)c(OC)c2)c(OC)c1 (relative stereo) | 23.3 µM

Now from value to compound:

IC50 | Structure (SMILES)
37.8 µM | COc1cc([C@@H]2O[C@@H](c3ccc(O)c(OC)c3)[C@H](C)[C@H]2C)ccc1O
38 µM | COc1cc([C@H]2O[C@H](c3ccc(O)c(OC)c3)[C@@H](C)[C@@H]2C)ccc1O
> 50 µM | COc1ccc([C@H]2OC[C@H]3[C@@H]2CO[C@@H]3c2ccc(OC)c(OC)c2)cc1OC [(+)-EUDESMIN]
0.8 µM | C[C@@H]1C[C@H]2[C@@H]3CCC4=CC(=O)C=C[C@]4(C)[C@@]3(F)[C@@H](O)C[C@]2(C)[C@@]1(O)C(=O)CO [DEXAMETHASONE]
> 50 µM | COc1ccc([C@@H]2OC[C@@H]3[C@H]2CO[C@H]3c2ccc(OC)c(OC)c2)cc1OC [EUDESMINE]
